What was measured:
MCF-7 cells = test: Breast Cancer Cell Viability Assays (MCF-7, CellTiter-Glo); assay type: cell-based; conditions: 5 days' compound exposure; for IC50: Homo sapiens, MCF7, 120 h
Outline: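 MCF-7 cells (320/well, RPMI with 10% FBS) exposed for 5 days to an eleven-point semilog series, 0.3–0.000003 μM final. Viability read by CellTiter-Glo luminescence, expressed as background-corrected percent of untreated cells.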

ER-α in MCF-7 cells = target: T1, ER-α in MCF-7 cells (Homo sapiens, UniProt P03372); test: Breast Cancer Cell ER-α In Cell Western Assay (SP1); assay type: cell-based; conditions: 4 or 24 hr post compound addition; for Emax: MCF7, SP1 antibody, read-out: ER-α In Cell Western Assay (SP1) Max Response; for DC50: SP1 antibody, read-out: ER-α In Cell Western Assay (SP1) IC50
T1 construct: endogenous in cells; host or cells: MCF-7
T1 sequence (P03372 1-595): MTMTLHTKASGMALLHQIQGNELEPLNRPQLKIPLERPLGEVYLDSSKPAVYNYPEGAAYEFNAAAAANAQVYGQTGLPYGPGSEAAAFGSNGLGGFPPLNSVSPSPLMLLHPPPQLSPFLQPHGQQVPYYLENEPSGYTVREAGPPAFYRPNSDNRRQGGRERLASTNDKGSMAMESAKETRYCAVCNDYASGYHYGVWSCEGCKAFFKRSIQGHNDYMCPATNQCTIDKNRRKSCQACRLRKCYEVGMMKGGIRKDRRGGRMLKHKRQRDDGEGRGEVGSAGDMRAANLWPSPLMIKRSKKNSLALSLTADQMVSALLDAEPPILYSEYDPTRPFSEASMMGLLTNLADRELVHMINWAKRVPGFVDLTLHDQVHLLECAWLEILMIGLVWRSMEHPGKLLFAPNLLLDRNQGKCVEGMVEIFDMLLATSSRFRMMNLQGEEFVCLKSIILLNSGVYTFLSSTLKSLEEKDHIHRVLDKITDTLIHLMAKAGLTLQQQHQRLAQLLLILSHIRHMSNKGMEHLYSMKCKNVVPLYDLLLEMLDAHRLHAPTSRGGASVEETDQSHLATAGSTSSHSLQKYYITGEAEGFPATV
Outline: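 MCF-7 cells in charcoal-stripped FBS medium, treated with 11-point semilog dilutions (0.3–0.000003 μM final) for 4 or 24 h. Fixed cells immunostained with SP1 antibody (800 nm) and DRAQ5 DNA (700 nm); ER/DNA ratio expressed as % of untreated cells.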

Compound	MCF7 Viability Assay Max Response (MCF-7 cells)	IC50 (MCF-7 cells) [nM]	Emax (ER-α in MCF-7 cells) [%]	DC50 (ER-α in MCF-7 cells) [nM]
N#Cc1c(/C(=C(/c2ccccc2)C2CC2)c2ccc(/C=C/C(=O)O)cc2)ccc2[nH]nc(F)c12 [Example 14, (E)-3-(4-((E)-1-(4-Cyano-3-fluoro-1H-indazol-5-yl)-2-cyclopropyl-2-phenylvinyl)phenyl)acrylic acid]	++ (++ = a single % value ≧ 40%)	≤ 100	≥ 40	≤ 100
Cc1cc(CO)ccc1/C(=C(\c1ccc(/C=C/C(=O)O)cc1)c1ccc2[nH]nc(F)c2c1)C1CCC1 [Example 217, (E)-3-(4-((E)-2-Cyclobutyl-1-(3-fluoro-1H-indazol-5-yl)-2-(4-(hydroxymethyl)-2-methylphenyl)vinyl)phenyl)acrylic acid]	++ (++ = a single % value ≧ 40%)	≤ 100	≥ 40	≤ 100
COc1cc(C)c(/C(=C(\c2ccc(/C=C/C(=O)O)cc2)c2ccc3[nH]nc(F)c3c2)C2CCC2)cn1 [Example 112, (E)-3-(4-((E)-2-Cyclobutyl-1-(3-fluoro-1H-indazol-5-yl)-2-(6-methoxy-4-methylpyridin-3-yl)vinyl)phenyl)acrylic acid]	++ (++ = a single % value ≧ 40%)	≤ 100	≥ 40	≤ 100
O=C(O)/C=C/c1ccc(/C(=C(\c2ccc(F)cc2Cl)C2CCC2)c2ccc3c(c2)CNC3=O)cc1 [Example 5, (E)-3-(4-((E)-2-(2-Chloro-4-fluorophenyl)-2-cyclobutyl-1-(1-oxoisoindolin-5-yl)vinyl)phenyl)acrylic acid]	++ (++ = a single % value ≧ 40%)	≤ 100	≥ 40	≤ 100
O=c1[nH]c(/C=C/c2ccc(/C(=C(\c3ncc(C(F)(F)F)cc3Cl)C3CCC3)c3ccc4[nH]nc(F)c4c3)cc2)no1 [Example 279, 3-((E)-4-((E)-2-(3-Chloro-5-(trifluoromethyl)pyridin-2-yl)-2-cyclobutyl-1-(3-fluoro-1H-indazol-5-yl)vinyl)styryl)-1,2,4-oxadiazol-5(4H)-one]	++ (++ = a single % value ≧ 40%)	≤ 100	≥ 40	≤ 100
N#Cc1cc(F)ccc1/C(=C(\c1ccc(/C=C/C(=O)O)cc1)c1ccc2[nH]ncc2c1)C1CCC1 [Example 54, (E)-3-(4-((E)-2-(2-Cyano-4-fluorophenyl)-2-cyclobutyl-1-(1H-indazol-5-yl)vinyl)phenyl)acrylic acid]	++ (++ = a single % value ≧ 40%)	≤ 100	≥ 40	≤ 100
COc1ccc(/C(=C(\c2ccc(/C=C/C(=O)O)cc2)c2ccc3scnc3c2)C2CCC2)cc1 [Example 91, (E)-3-(4-((E)-1-(Benzo[d]thiazol-5-yl)-2-cyclobutyl-2-(4-methoxyphenyl)vinyl)phenyl)acrylic acid]	++ (++ = a single % value ≧ 40%)	≤ 100	≥ 40	≤ 100
CC/C(=C(/c1ccc(/C=C/C(=O)O)cc1)c1ccc2[nH]nc(F)c2c1)c1cnc(OC)cc1C [Example 71, (E)-3-(4-((E)-1-(3-Fluoro-1H-indazol-5-yl)-2-(6-methoxy-4-methylpyridin-3-yl)but-1-en-1-yl)phenyl)acrylic acid]	++ (++ = a single % value ≧ 40%)	≤ 100	≥ 40	≤ 100
O=C(/C=C/c1ccc(/C(=C(\c2ccc(F)cc2Cl)C2CCC2)c2ccc3nccn3c2)cc1)NCCO [Example 187, (E)-3-(4-((E)-2-(2-Chloro-4-fluorophenyl)-2-cyclobutyl-1-(imidazo[1,2-a]pyridin-6-yl)vinyl)phenyl)-N-(2-hydroxyethyl)acrylamide]	++ (++ = a single % value ≧ 40%)	≤ 100	≥ 40	≤ 100
CC/C(=C(/c1ccc(/C=C/C(=O)O)cc1)c1ccc2[nH]nc(F)c2c1)c1ccc(C#N)cc1Cl [Example 106, (E)-3-(4-((E)-2-(2-Chloro-4-cyanophenyl)-1-(3-fluoro-1H-indazol-5-yl)but-1-en-1-yl)phenyl)acrylic acid]	++ (++ = a single % value ≧ 40%)	≤ 100	≥ 40	≤ 100
COc1ccc(/C(=C(\c2ccc(/C=C/C(=O)O)cc2)c2ccc3[nH]nc(F)c3c2)C2CCC2)cc1 [Example 23, (E)-3-(4-((E)-2-Cyclobutyl-1-(3-fluoro-1H-indazol-5-yl)-2-(4-methoxyphenyl)vinyl)phenyl)acrylic acid]	++ (++ = a single % value ≧ 40%)	≤ 100	≥ 40	≤ 100
COc1cc(C)c(/C(=C(\c2ccc(/C=C/C(=O)O)cc2)c2cccc3[nH]ncc23)C2CCC2)cn1 [Example 127, (E)-3-(4-((E)-2-Cyclobutyl-1-(1H-indazol-4-yl)-2-(6-methoxy-4-methylpyridin-3-yl)vinyl)phenyl)acrylic acid]	++ (++ = a single % value ≧ 40%)	≤ 100	≥ 40	≤ 100
O=C(O)/C=C/c1ccc(/C(=C(\c2ccccc2Cl)C2CC2)c2ccc3[nH]nc(F)c3c2)cc1 [Example 153, (E)-3-(4-((E)-2-(2-Chlorophenyl)-2-cyclopropyl-1-(3-fluoro-1H-indazol-5-yl)vinyl)phenyl)acrylic acid]	++ (++ = a single % value ≧ 40%)	≤ 100	≥ 40	≤ 100
COc1cccc(/C(=C(\c2ccc(/C=C/C(=O)O)cc2)c2ccc3[nH]nc(F)c3c2)C2CCC2)c1 [Example 24, (E)-3-(4-((E)-2-Cyclobutyl-1-(3-fluoro-1H-indazol-5-yl)-2-(3-methoxyphenyl)vinyl)phenyl)acrylic acid]	++ (++ = a single % value ≧ 40%)	≤ 100	≥ 40	≤ 100
CS(=O)(=O)c1ccccc1/C(=C(\c1ccc(/C=C/C(=O)O)cc1)c1ccc2[nH]nc(F)c2c1)C1CCC1 [Example 194, (E)-3-(4-((E)-2-Cyclobutyl-1-(3-fluoro-1H-indazol-5-yl)-2-(2-(methylsulfonyl)phenyl)vinyl)phenyl)acrylic acid]	++ (++ = a single % value ≧ 40%)	≤ 100	≥ 40	≤ 100
C/C(=C\C(=O)O)c1ccc(/C(=C(\c2ccccc2)C2CCC2)c2ccc3[nH]nc(F)c3c2)cc1 [Example 266, (E)-3-(4-((E)-2-Cyclobutyl-1-(3-fluoro-1H-indazol-5-yl)-2-phenylvinyl)phenyl)but-2-enoic acid]	++ (++ = a single % value ≧ 40%)	≤ 100	≥ 40	≤ 100
CC/C(=C(/c1ccc(/C=C/C(=O)O)cc1)c1ccc2[nH]nc(F)c2c1)c1ccc(C#N)cc1C [Example 105]	++ (++ = a single % value ≧ 40%)	≤ 100	≥ 40	≤ 100
